From article PMC4453610 (British Journal of Cancer, 2014)

Columns and labels:
clinical = details: human, plasma, oral
[1] = Pharmacokinetic analysis of sorafenib in plasma of patients; format: in vivo, human; details: compared with previous studies of 400 mg b.i.d. sorafenib
[2] = Day 1 of Cycle 2 vs Day 5 of Cycle 1
[3] = geometric mean, with vs without sorafenib

Row | SMILES | average decrease in t1/2 when co-administered with sorafenib [2] | average decrease of AUC (0–24) when co-administered with sorafenib [2] | average reduction of Cmax when co-administered with sorafenib [2] | AUC(0–24) Ratio cycles 2/1, geometric mean [3] | Cmax Ratio cycles 2/1, geometric mean [3] | AUC(0-t) (clinical; AUC(0–24) Cycle 1, geometric mean, Day 5, Cycle 1, without sorafenib) | AUC(0-t) (clinical; AUC(0–24) Cycle 2, geometric mean, Day 1, Cycle 2, with 400 mg bid sorafenib) | circulating concentrations of sorafenib when dosed in combination with cyclophosphamide and letrozole [1]
1 | O=P1(N(CCCl)CCCl)NCCCO1 (centres unmarked) [cyclophosphamide] | 27% | 29% | 12% | 0.71 | 0.88 | 16700 ng·h/mL | 11900 ng·h/mL | –
2 | CNC(=O)c1cc(Oc2ccc(NC(=O)Nc3ccc(Cl)c(C(F)(F)F)c3)cc2)ccn1 [sorafenib, Sorafenib] | – | – | – | – | – | – | – | not significantly affected
